According to article PMC7559746 (Pharmaceutics, 2020):
“And” between values parts separate entries of the source, which are not always exact repeats. Equal values may be shown once. Read-outs that look alike come from different tables or passages of the source.

Legend:
[1] = Toxicity in patients (CTCAE version 4.0, patient diaries) per study phase; assay type: in vivo, human
Description: Toxicity was described as the incidence of toxicity per phase. This was corrected for baseline toxicity and was only taken into account in case of an increase in CTCAE grade per PK sampling day.

clinical = settings: human, plasma, oral
Description: Patients were admitted to the hospital on days 1 and 15 of the study for pharmacokinetic blood sampling. […] Blood samples were processed into plasma within 30 min, by vortex mixing and centrifugation for 10 min at 2500× g at 4 °C. Plasma concentrations were determined using a validated liquid chromatography tandem mass spectrometry (LC-MS/MS) method [18], at both the laboratory of Translational Pharmacology in the Erasmus MC, Rotterdam, and the laboratory of Pharmaceutics and Pharmaceutical Chemistry, Ohio State University, OH.
The point estimates and CIs were transformed back to the original scale in order to give the point estimates for the ratio of the geometric means and the CIs. Tmax was analyzed by means of the Wilcoxon signed rank test and described with medians and interquartile ranges. Toxicity was described as the incidence of toxicity per phase. This was corrected for baseline toxicity and was only taken into account in case of an increase in CTCAE grade per PK sampling day.

[2] = Sorafenib concentration in 3-mm skin biopsies of patients (LC-MS/MS); assay type: in vivo, human
Description: A 3-mm skin biopsy was obtained at days 1 and 15 of the study during PK sampling days for pharmacokinetic analysis. Skin biopsies were taken from either the forearm or the shoulder region, but always from the same region at the same timepoint in an individual patient during the two consecutive PK sampling days. If patients had HFSR lesions at the hand at the first PK day, an additional skin biopsy was performed from the thenar eminence region of the hand for pathologic analysis on days 1 and 15. The biopsies were graded according to the scoring for interface dermatitis as used for graft-versus-host disease by an experienced pathologist (J.D.).

[3] = design: method as in PMID 29065985; settings: cited from earlier work
[4] = at clinically relevant doses; cited from earlier work
[5] = plasma, relative difference of geometric means
[6] = plasma, sorafenib monotherapy (day 1)

For `CNC(=O)c1cc(Oc2ccc(NC(=O)Nc3ccc(Cl)c(C(F)(F)F)c3)cc2)cc[n+]1[O-]` [Sorafenib-N-oxide, sorafenib-N-oxide], the “RD sorafenib monotherapy vs. sorafenib + probenecid (90% CI), AUC0–12 h” value [5] was −36.3% (−52.8% to −14.1%), the “RD sorafenib monotherapy vs. sorafenib + probenecid (90% CI), Cmax” value [5] was −39.2% (−54.6% to −18.7%) and the “RD sorafenib monotherapy vs. sorafenib + probenecid (90% CI), Ctrough” value [5] was −35.2% (−59.7% to 4.3%). The “Cmax (CV%) geomean” value [6] was 467.3 (77) μg/mL, the “Ctrough (CV%) geomean” value [6] was 271.1 (282) μg/mL and the “decrease of geometric mean plasma AUC0–12 h with concomitant probenecid” value (vs sorafenib alone, decrease) was 36.3%. The “decrease of plasma Cmax with concomitant probenecid” value (vs sorafenib alone, decrease) was 39.2%.

For `CNC(=O)c1cc(Oc2ccc(NC(=O)Nc3ccc(Cl)c(C(F)(F)F)c3)cc2)ccn1` [Sorafenib, sorafenib], the “Anorexia, Grade 1–2, patients” value ([1]; N = 16 per phase) was 4, the “Constipation, Grade 1–2, patients” value ([1]; N = 16 per phase) was 2 and the “Diarrhea, Grade 1–2, patients” value ([1]; N = 16 per phase) was 1. The “Fatigue, Grade 1–2, patients” value ([1]; N = 16 per phase) was 2, the “Fever, Grade 1–2, patients” value ([1]; N = 16 per phase) was 1 and the “HFSR, Grade 1–2, patients” value ([1]; N = 16 per phase) was 3. For the same compound, the “Nausea, Grade 1–2, patients” value ([1]; N = 16 per phase) was 1, the “Oral mucositis, Grade 1–2, patients” value ([1]; N = 16 per phase) was 1 and the “Pain, Grade 1–2, patients” value ([1]; N = 16 per phase) was 1. For the same compound, the “Pain, Grade 3, patients” value ([1]; N = 16 per phase) was 1, the “Rash, Grade 1–2, patients” value ([1]; N = 16 per phase) was 1 and the “Vomiting, Grade 1–2, patients” value ([1]; N = 16 per phase) was 0. The “Serious adverse events (SAE)” value ([1]; N = 16 per phase, assumed not related to study drugs) was 1, the “occurrence of HFSR, rash, anorexia, and fatigue” value ([1]; during sorafenib monotherapy) was 43% and the “patients in whom HFSR occurred” value ([1]; whole study) was 10 of 16 patients. It also gave a Cmax (clinical) of 3340 ng/mL, a Tmax (clinical) of 2.2 h and an AUC(0-t) (clinical; 500 mg) of 24500 ng·h/mL. For the same compound, the “difference in sorafenib plasma AUC between patients with or without liver cirrhosis” value (90% CI: −32.9% to 30.7%, P = 0.73) was −6.3%, the “difference in sorafenib plasma Ctrough between patients with or without liver cirrhosis” value (90% CI: −46.8% to 61.3%, P = 0.81) was −7.4% and the AUC(0-t) (human, plasma, oral) was 33500 ng·h/mL. The Cmax (human, plasma, oral, Cmax (CV%) geomean, plasma, sorafenib monotherapy (day 1)) was 4460 ng/mL, the Tmax (human, plasma, oral, Tmax (IQR) median, plasma, sorafenib monotherapy (day 1)) was 3.7 h and the “RD sorafenib monotherapy vs. sorafenib + probenecid (90% CI), Cmax” value [5] was −25.1% (−44.3% to −19.7%). For the same compound, the “RD sorafenib monotherapy vs. sorafenib + probenecid (90% CI), Ctrough” value [5] was −26.0% (−43.4% to −3.4%), the “Ctrough (CV%) geomean” value [6] was 2125.5 (60) μg/mL and the “decrease of geometric mean plasma AUC0–12 h with concomitant probenecid” value (vs sorafenib alone, decrease) was 27% and 26.8%. For the same compound, the “decrease of plasma Cmax with concomitant probenecid” value (vs sorafenib alone, decrease) was 25.1%, the “decrease of plasma Ctrough with concomitant probenecid” value (vs sorafenib alone, decrease) was 26.0% and the Kp at 15 study day ([2]; human, skin and plasma, oral) was 0.00147. The “RD sorafenib monotherapy vs. sorafenib + probenecid (90% CI), sorafenib concentration in keratinocytes” value ([2]; skin biopsy) was −28.1% (−46.3% to −3.7%), the “decrease of sorafenib concentration in skin in the presence of probenecid” value ([2]; vs sorafenib alone, decrease) was 28.1% and the “clinical incidence of HFSR ≥ grade 3” value [3] was 20%.

For `CCCN(CCC)S(=O)(=O)c1ccc(C(=O)O)cc1` [Probenecid, probenecid], the “occurrence of HFSR, rash, anorexia, and fatigue” value ([1]; during probenecid administration (concomitant with sorafenib)) is listed as 65% and the plasma concentrations achieved [4] is listed as “higher than 200 µM”.
